Data taken from ChEMBL document CHEMBL4004838, “Design and synthesis of novel phenyl -1, 4-beta-carboline-hybrid molecules as potential anticancer agents” (Eur J Med Chem, 2017).

Legend:
Assay type in all cases: functional
NCI-H522 = experiment: Growth inhibition of human NCI-H522 cells assessed as cell growth at 10^-5 M incubated for 48 hrs by sulforhodamine B assay relative to control; conditions: NCI-H522, 48 h, read-out: Activity
LOX IMVI = experiment: Growth inhibition of human LOXIMVI cells assessed as cell growth at 10^-5 M incubated for 48 hrs by sulforhodamine B assay relative to control; conditions: read-out: Activity
HOP-92 = experiment: Growth inhibition of human HOP92 cells assessed as cell growth at 10^-5 M incubated for 48 hrs by sulforhodamine B assay relative to control; conditions: HOP-92, 48 h, read-out: Activity
K562 = experiment: Growth inhibition of human K562 cells assessed as cell growth at 10^-5 M incubated for 48 hrs by sulforhodamine B assay relative to control; conditions: K562, 48 h, read-out: Activity
OVCAR-5 = experiment: Growth inhibition of human OVCAR5 cells assessed as cell growth at 10^-5 M incubated for 48 hrs by sulforhodamine B assay relative to control; conditions: OVCAR-5, 48 h, read-out: Activity
NCI-H322M = experiment: Growth inhibition of human NCI-H322M cells assessed as cell growth at 10^-5 M incubated for 48 hrs by sulforhodamine B assay relative to control; conditions: read-out: Activity
SK-OV-3 = experiment: Growth inhibition of human SKOV3 cells assessed as cell growth at 10^-5 M incubated for 48 hrs by sulforhodamine B assay relative to control; conditions: SK-OV-3, 48 h, read-out: Activity
A498 = experiment: Growth inhibition of human A498 cells assessed as cell growth at 10^-5 M incubated for 48 hrs by sulforhodamine B assay relative to control; conditions: A498, 48 h, read-out: Activity
NCI-H23 = experiment: Growth inhibition of human NCI-H23 cells assessed as cell growth at 10^-5 M incubated for 48 hrs by sulforhodamine B assay relative to control; conditions: NCI-H23, 48 h, read-out: Activity
MDA-MB-435 = experiment: Growth inhibition of human MDA-MB-435 cells assessed as cell growth at 10^-5 M incubated for 48 hrs by sulforhodamine B assay relative to control; conditions: MDA-MB-435, 48 h, read-out: Activity
NCI/ADR-RES = experiment: Growth inhibition of human NCI-ADR-RES cells assessed as cell growth at 10^-5 M incubated for 48 hrs by sulforhodamine B assay relative to control; conditions: read-out: Activity
MCF7 = experiment: Growth inhibition of human MCF7 cells assessed as cell growth at 10^-5 M incubated for 48 hrs by sulforhodamine B assay relative to control; conditions: MCF7, 48 h, read-out: Activity
786-0 = experiment: Growth inhibition of human 786-0 cells assessed as cell growth at 10^-5 M incubated for 48 hrs by sulforhodamine B assay relative to control; conditions: 786-0, 48 h, read-out: Activity
M14 = experiment: Growth inhibition of human M14 cells assessed as cell growth at 10^-5 M incubated for 48 hrs by sulforhodamine B assay relative to control; conditions: M14, 48 h, read-out: Activity
HCC 2998 = experiment: Growth inhibition of human HCC2998 cells assessed as cell growth at 10^-5 M incubated for 48 hrs by sulforhodamine B assay relative to control; conditions: HCC 2998, 48 h, read-out: Activity
OVCAR-8 = experiment: Growth inhibition of human OVCAR8 cells assessed as cell growth at 10^-5 M incubated for 48 hrs by sulforhodamine B assay relative to control; conditions: OVCAR-8, 48 h, read-out: Activity
TK-10 = experiment: Growth inhibition of human TK10 cells assessed as cell growth at 10^-5 M incubated for 48 hrs by sulforhodamine B assay relative to control; conditions: TK-10, 48 h, read-out: Activity
A549 = experiment: Growth inhibition of human A549/ATCC cells assessed as cell growth at 10^-5 M incubated for 48 hrs by sulforhodamine B assay relative to control; conditions: A549, 48 h, read-out: Activity
SK-MEL-5 = experiment: Growth inhibition of human SK-MEL-5 cells assessed as cell growth at 10^-5 M incubated for 48 hrs by sulforhodamine B assay relative to control; conditions: SK-MEL-5, 48 h, read-out: Activity
SF-539 = experiment: Growth inhibition of human SF539 cells assessed as cell growth at 10^-5 M incubated for 48 hrs by sulforhodamine B assay relative to control; conditions: SF-539, 48 h, read-out: Activity
SR = experiment: Growth inhibition of human SR cells assessed as cell growth at 10^-5 M incubated for 48 hrs by sulforhodamine B assay relative to control; conditions: read-out: Activity
MDA-MB-468 = experiment: Growth inhibition of human MDA-MB-468 cells assessed as cell growth at 10^-5 M incubated for 48 hrs by sulforhodamine B assay relative to control; conditions: MDA-MB-468, 48 h, read-out: Activity
CCRF-CEM = experiment: Growth inhibition of human CCRF-CEM cells assessed as cell growth at 10^-5 M incubated for 48 hrs by sulforhodamine B assay relative to control; conditions: read-out: Activity
UO-31 = experiment: Growth inhibition of human UO31 cells assessed as cell growth at 10^-5 M incubated for 48 hrs by sulforhodamine B assay relative to control; conditions: UO-31, 48 h, read-out: Activity
HOP-62 = experiment: Growth inhibition of human HOP62 cells assessed as cell growth at 10^-5 M incubated for 48 hrs by sulforhodamine B assay relative to control; conditions: HOP-62, 48 h, read-out: Activity
HCT-15 = experiment: Growth inhibition of human HCT15 cells assessed as cell growth at 10^-5 M incubated for 48 hrs by sulforhodamine B assay relative to control; conditions: HCT-15, 48 h, read-out: Activity
SK-MEL-28 = experiment: Growth inhibition of human SK-MEL-28 cells assessed as cell growth at 10^-5 M incubated for 48 hrs by sulforhodamine B assay relative to control; conditions: SK-MEL-28, 48 h, read-out: Activity
DU-145 = experiment: Growth inhibition of human DU145 cells assessed as cell growth at 10^-5 M incubated for 48 hrs by sulforhodamine B assay relative to control; conditions: DU-145, 48 h, read-out: Activity
COLO 205 = experiment: Growth inhibition of human COLO205 cells assessed as cell growth at 10^-5 M incubated for 48 hrs by sulforhodamine B assay relative to control; conditions: COLO 205, 48 h, read-out: Activity
Hs-578T = experiment: Growth inhibition of human Hs 578T cells assessed as cell growth at 10^-5 M incubated for 48 hrs by sulforhodamine B assay relative to control; conditions: read-out: Activity
NCI-H460 = experiment: Growth inhibition of human NCI-H460 cells assessed as cell growth at 10^-5 M incubated for 48 hrs by sulforhodamine B assay relative to control; conditions: NCI-H460, 48 h, read-out: Activity
SK-MEL-2 = experiment: Growth inhibition of human SK-MEL-2 cells assessed as cell growth at 10^-5 M incubated for 48 hrs by sulforhodamine B assay relative to control; conditions: SK-MEL-2, 48 h, read-out: Activity

| SMILES | growth at 10 µM (NCI-H522) | growth at 10 µM (LOX IMVI) | growth at 10 µM (HOP-92) | growth at 10 µM (K562) | growth at 10 µM (OVCAR-5) | growth at 10 µM (NCI-H322M) | growth at 10 µM (SK-OV-3) | growth at 10 µM (A498) | growth at 10 µM (NCI-H23) | growth at 10 µM (MDA-MB-435) | growth at 10 µM (NCI/ADR-RES) | growth at 10 µM (MCF7) | growth at 10 µM (786-0) | growth at 10 µM (HCC 2998) | growth at 10 µM (OVCAR-8) | growth at 10 µM (A549) | growth at 10 µM (SK-MEL-5) | growth at 10 µM (HOP-62) | growth at 10 µM (DU-145) | growth at 10 µM (NCI-H460) | further results |
| --- | --- | --- | --- | --- | --- | --- | --- | --- | --- | --- | --- | --- | --- | --- | --- | --- | --- | --- | --- | --- | --- |
| O=Cc1ccc(C2NCCc3c2[nH]c2ccccc32)cc1 (stereo not drawn) | 88% | 88.6% | 87.2% | 102% | 100% | 97.6% | 88.2% | 86.4% | 87.1% | 107% | 107% | 91.9% | 104% | 104% | 105% | 94.7% | 93% | 86.3% | 110% | 100% | growth at 10 µM (M14): 89.5%; growth at 10 µM (TK-10): 115%; growth at 10 µM (SF-539): 103%; growth at 10 µM (SR): 114%; growth at 10 µM (MDA-MB-468): 88.7%; growth at 10 µM (CCRF-CEM): 99.3%; growth at 10 µM (UO-31): 61.9%; growth at 10 µM (HCT-15): 101%; growth at 10 µM (SK-MEL-28): 109%; growth at 10 µM (COLO 205): 105%; growth at 10 µM (Hs-578T): 90.5%; growth at 10 µM (SK-MEL-2): 94.8% |
| Cc1n[nH]c2c1C(c1ccc(C3NCCc4c3[nH]c3ccccc43)cc1)C(C#N)=C(N)O2 (stereo not drawn) | 81.8% | 80.6% | 88.8% | 74.3% | 87.4% | 97.7% | 92% | 67.1% | 87.7% | 96.3% | 96.3% | 78.8% | 97.4% | 105% | 104% | 84.9% | 89.4% | 83% | 105% | 91.8% | growth at 10 µM (M14): 86.7%; growth at 10 µM (TK-10): 101%; growth at 10 µM (SF-539): 92%; growth at 10 µM (SR): 113%; growth at 10 µM (MDA-MB-468): 92.7%; growth at 10 µM (CCRF-CEM): 83.7%; growth at 10 µM (UO-31): 53.9%; growth at 10 µM (HCT-15): 87.7%; growth at 10 µM (SK-MEL-28): 97.1%; growth at 10 µM (COLO 205): 92.4%; growth at 10 µM (Hs-578T): 87.7%; growth at 10 µM (SK-MEL-2): 86% |
| Cc1ccc(S(=O)(=O)N2CCc3c([nH]c4ccccc34)C2c2ccc(-c3nc4ccccc4[nH]3)cc2)cc1 (stereo not drawn) | 60.3% | 85.5% | 102% | 106% | 78.7% | 87.7% | 88.5% | 84.6% | 85.7% | 93.4% | 88.9% | 92.4% | 99.6% | 102% | 98.2% | 92.8% | 89.8% | 94.3% | 101% | 93% | growth at 10 µM (M14): 85.8%; growth at 10 µM (TK-10): 98%; growth at 10 µM (SF-539): 90.2%; growth at 10 µM (SR): 97.2%; growth at 10 µM (MDA-MB-468): 102%; growth at 10 µM (CCRF-CEM): 106%; growth at 10 µM (UO-31): 66.7%; growth at 10 µM (HCT-15): 94.3%; growth at 10 µM (SK-MEL-28): 86%; growth at 10 µM (COLO 205): 92.1%; growth at 10 µM (Hs-578T): 89.2%; growth at 10 µM (SK-MEL-2): 81.6% |
| c1ccc2[nH]c(-c3ccc(-c4nccc5c4[nH]c4ccccc45)cc3)nc2c1 |  |  |  |  |  |  | 22 to 104% | 58 to 68.7% | 18 to 69.1% |  | 10 to 62.6% | 17 to 30.4% |  | 19 to 74% | 4 to 16.5% | 21 to 45.7% | 16 to 62.6% | 2 to 86.1% | 19 to 67.4% | 42.9% |  |
| Cc1ccc(S(=O)(=O)N2CCc3c([nH]c4ccccc34)C2c2ccc(C=O)cc2)cc1 (stereo not drawn) | 60.3% | 85.5% | 102% | 106% | 78.7% | 87.7% | 88.5% | 84.6% | 85.7% | 93.4% | 88.9% | 92.4% | 99.6% | 102% | 98.2% | 92.8% | 89.8% | 94.3% | 101% | 93% | growth at 10 µM (M14): 85.8%; growth at 10 µM (TK-10): 98%; growth at 10 µM (SF-539): 90.2%; growth at 10 µM (SR): 97.2%; growth at 10 µM (MDA-MB-468): 102%; growth at 10 µM (CCRF-CEM): 106%; growth at 10 µM (UO-31): 66.7%; growth at 10 µM (HCT-15): 94.3%; growth at 10 µM (SK-MEL-28): 86%; growth at 10 µM (COLO 205): 92.1%; growth at 10 µM (Hs-578T): 89.2%; growth at 10 µM (SK-MEL-2): 81.6% |
| c1ccc2c3c([nH]c2c1)C(c1ccc(C2NCCc4c2[nH]c2ccccc42)cc1)NCC3 (racemic) |  |  |  |  |  |  |  |  |  |  |  |  |  |  | -41.5% |  |  |  |  |  |  |
| c1ccc2[nH]c(-c3ccc(C4NCCc5c4[nH]c4ccccc54)cc3)nc2c1 (stereo not drawn) | 83.5% | 98% | 82.2% | 88.2% | 94.2% | 92.8% | 95.6% | 104% | 102% | 101% | 109% | 96.7% | 95.9% | 107% | 99.2% | 82.9% | 96.5% | 89% | 113% | 104% | growth at 10 µM (M14): 96.6%; growth at 10 µM (TK-10): 94.6%; growth at 10 µM (SF-539): 102%; growth at 10 µM (SR): 119%; growth at 10 µM (MDA-MB-468): 94.7%; growth at 10 µM (CCRF-CEM): 103%; growth at 10 µM (UO-31): 73.5%; growth at 10 µM (HCT-15): 107%; growth at 10 µM (SK-MEL-28): 102%; growth at 10 µM (COLO 205): 98.3%; growth at 10 µM (Hs-578T): 93.9%; growth at 10 µM (SK-MEL-2): 96.8% |
